From patent US9321722B2, “Bis-indolic derivatives, their uses in particular as antibacterials” (UNIVERSITE JOSEPH FOURIER, priority 2011, dated 2016)
Converted amounts (≈) assume the structure as drawn.

Legend:
Assay in all cases: MIC, Staphylococcus panel (Table I-2)
Format in all cases: cell-based
[1] = system: Staphylococcus aureus ATCC 106414 (VISA); conditions: 18 h, 4% DMSO
Protocol: (§1) We used the previously described protocol, with subtle modifications. The microdilution method recommended by the Clinical and Laboratory Standard Institute [M07-A9, Vol. 32, N^o 2] was used. The activity of bis-indolic compounds was tested against 35 bacterial strains belonging to 12 different Staphylococcus species.
(§2) Bacterial inocula were prepared in Mueller Hinton broth (MH2, BioMerieux, Marcy L'Etoile, France). They were dispensed in 96 well microtiter plates (5×10^5 CFU/ml of final inoculum, 192 μL per well). Indolic compounds diluted in pure DMSO (8 μL per well, concentrated 25 times) were added to the wells as to obtain two-fold serial concentrations (0.5-32 mg/L of final concentrations). The final concentration of DMSO was 4% in each well.
(§3) To avoid cross-contaminations in microtiter plates, one row was left blank between each strain tested. Microplates were incubated for 18 h at 37° C. in ambient air or at 37° C. in 5% CO2 enriched atmosphere for fastidious species. Then MICs were read visually and, in case of visual reading difficulties, confirmed using a spectrophotometer at a wavelength of 630 nm (BioTek® EL808 Absorbance Microplate Reader). MICs corresponded to the minimum bis-indolic compound concentration that allowed complete visual growth inhibition of bacteria. Drug-free cultures served as growth controls.
(§4) We used four Staphylococcus aureus strains. Two reference strains were provided by the French reference center for Staphylococcus spp. (Lyon, France), including one methicillin-susceptible (MSSA 476) and one methicillin-resistant (MRSA 252) S. aureus strains. The two remaining S. aureus strains were purchased from the CRBIP (Centre de Ressources Biologiques de l'Institut Pasteur): a vancomycin-intermediate strain (ATCC 106414) and a S. aureus strain (SA-1199B) resistant to fluoroquinolones due to overexpression of the NorA multidrug efflux pump.

[2] = system: Staphylococcus aureus MRSA 252; conditions: 18 h, 4% DMSO
Protocol: as §1, §2, §3, §4

[3] = system: Staphylococcus aureus MSSA 476; conditions: 18 h, 4% DMSO
Protocol: as §1, §2, §3, §4

[4] = system: Staphylococcus aureus SA-1199B (NorA); conditions: 18 h
Protocol: as §1, §2, §3, §4

Work on `CC(C)(C)OC(=O)NCC(NC(=O)C(=O)c1c[nH]c2ccc(Br)cc12)c1c[nH]c2ccc(Br)cc12` (centres unmarked) [Compound 4, tert-Butyl(2-(5-bromo-1H-indol-3-yl)-2-(2-(5-bromo-1H-indol-3-yl)-2-oxoacetamido)ethyl) carbamate] yielded an MIC [1] of 1 µg/mL (≈ 1.65 µM), an MIC [2] of 1 µg/mL (≈ 1.65 µM) and an MIC [3] of 1 µg/mL (≈ 1.65 µM). It also gave an MIC [4] of 1 µg/mL (≈ 1.65 µM).
`CC(NC(=O)C(=O)c1c[nH]c2ccc(Br)cc12)c1c[nH]c2ccc(Br)cc12` (centres unmarked) [Compound 5, 2-(5-Bromo-1H-indol-3-yl)-N-(1-(5-bromo-1H-indol-3-yl)ethyl)-2-oxoacetamide] gave an MIC [1] of 1 µg/mL (≈ 2.04 µM), an MIC [2] of 2 µg/mL (≈ 4.09 µM) and an MIC [3] of 2 µg/mL (≈ 4.09 µM). The MIC [4] was 2 µg/mL (≈ 4.09 µM).
